# Like-named read-outs stand apart in the source and are kept apart here.
# Legend:
# [1] = system: PD1 signal sequence plus 10 amino acids fused to Gaussia Luciferase (PD1-ss+10aa/Gaussia Luciferase); experiment: Dox Induced PD1-ss-Gluc Assay; format: cell-based; details: 24 hr, read-out: 24 hr Dox Inducible PD1ssGluc 293FRT/TO: Mean IC50
# Outline: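 Compound dilutions in DMSO/media containing doxycycline were applied to a stable, inducible 293 T-REx line carrying the luciferase fusion, then incubated at 37 °C, 5% CO2. Where stereochemistry is not drawn, values relate to isomer mixtures.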
# [2] = In Vitro Microsome Stability Assay (rat); format: in vitro ADME
# Outline: (§1)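 Test article, added from a 0.25 mM DMSO stock, was incubated with liver microsomes (20 mg/mL stock) in 0.1 M potassium phosphate at 37° C, with the reaction started by NADPH. Samples were quenched with acetonitrile containing internal standard at 0 and 30 min and analysed by LC-MS/MS. Values are % remaining at 30 min versus 0 min, using IS-normalised AUC ratios.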
# [3] = In Vitro Microsome Stability Assay (mouse); format: in vitro ADME
# Outline: as §1
# [4] = In Vitro Microsome Stability Assay (monkey); format: in vitro ADME
# Outline: as §1
# [5] = system: multiple myeloma cell line U266B1; experiment: U266 Cell Viability Assay; format: cell-based, human; details: Homo sapiens, U-266, 48 hr
# Outline: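 Viability was measured by CellTiter-Glo luminescence after 48 h compound exposure at 37° C, 5% CO2. The cells were U266B1 multiple myeloma cells grown in RPMI 1640 plus 10% FBS. Where stereochemistry is not shown, values apply to the stereoisomer mixture.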
# [6] = system: full length TNFα (amino acids 1-233) fused to Gaussia Luciferase; experiment: Dox Induced TNFα-FL-Gluc Assay; format: cell-based; details: 24 hr, read-out: 24 hr Dox Inducible TNFaFLGluc 293FRT/TO: Mean IC50
# Outline: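 Compounds diluted in DMSO/medium with doxycycline were incubated at 37° C, 5% CO2 with 293 T-REx cells stably carrying a Tet-regulated TNFα(1-233)-Gaussia luciferase construct. Data for structures drawn without stereochemistry refer to stereoisomer mixtures.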
# [7] = system: multiple myeloma cell line NCl-H929; experiment: H929 Cell Viability Assay; format: cell-based, human; details: Homo sapiens, NCI-H929, 48 h
# Outline: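 Viability was determined by CellTiter-Glo luminescence after a 48 h, 37 °C exposure of NCI-H929 cells to serial compound dilutions in medium containing 10% FBS. Where stereochemistry is not shown, values refer to a mix of stereoisomers.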
# [8] = In Vitro Microsome Stability Assay (human); format: in vitro ADME
# Outline: as §1
# [9] = system: full length IL-2 (amino acids 1-153) fused to Gaussia Luciferase; experiment: Dox Induced IL2-FL-Gluc Assay; format: cell-based; details: 24 hr, read-out: 24 hr Dox Inducible IL2FLGluc 293FRT/TO: Mean IC50
# Outline: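 Compounds in DMSO/media with doxycycline were added to cells plated the previous day and incubated at 37° C, 5% CO2. Cells: stable Flp-In 293 T-REx line, Dox-regulated expression of IL-2 (aa 1-153) fused at its C-terminus to Gaussia luciferase.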
# [10] = rat liver microsomes, 30 min w/ NADPH
# [11] = mouse liver microsomes, 30 min w/ NADPH
# [12] = monkey liver microsomes, 30 min w/ NADPH
# [13] = human liver microsomes, 30 min w/ NADPH
# [14] = U266, read-out: 48 hr U266 Viability Celltiter-Glo: Mean EC50
# [15] = H929, read-out: 48 hr H929 Viability Celltiter-Glo: Mean EC50
SMILES,"IC50 ([1]; Dox inducible, 293FRT/TO cells)","Liver Microsome Stability-% Left after 30 min w/ NADPH (%) Rat [2, 10]","Liver Microsome Stability-% Left after 30 min w/ NADPH (%) Mouse [3, 11]","Liver Microsome Stability-% Left after 30 min w/ NADPH (%) Monkey [4, 12]","EC50 ([5]; U266, Celltiter-Glo)","IC50 ([6]; Dox inducible, 293FRT/TO cells)","EC50 ([7]; H929, Celltiter-Glo)","Liver Microsome Stability-% Left after 30 min w/ NADPH (%) Human [8, 13]","IC50 ([9]; Dox inducible, 293FRT/TO cells)",IC50 ([1]; 293FRT/TO),"Liver Microsome Stability-% Left after 30 min w/ NADPH (%) Rat ([2]; rat, 30 min, NADPH)","Liver Microsome Stability-% Left after 30 min w/ NADPH (%) Mouse ([3]; mouse, 30 min, NADPH)","Liver Microsome Stability-% Left after 30 min w/ NADPH (%) Monkey ([4]; monkey, 30 min, NADPH)","EC50 [5, 14]",IC50 ([6]; 293FRT/TO),"EC50 [7, 15]","Liver Microsome Stability-% Left after 30 min w/ NADPH (%) Human ([8]; human, 30 min, NADPH)",IC50 ([9]; 293FRT/TO)
"Cc1cc(F)ccc1N1CCN(S(=O)(=O)N2CCCN(CC3CCCCC3)CCCN(S(=O)(=O)c3ccc(N(C)C)cc3)C[C@H](C)C2)CC1 [A102, 4-{[(3S)-9-(cyclohexylmethyl)-5-{[4-(4-fluoro-2-methylphenyl)piperazin-1-yl]sulfonyl}-3-methyl-1,5,9-triazacyclododecan-1-yl]sulfonyl}-N,N-dimethylaniline]",0.0334 µM,101.9%,86.6%,70%,> 25 µM,0.477 µM,0.558 µM,62.3%,0.0905 µM,–,–,–,–,–,–,–,–,–
"C[C@H]1CCN(S(=O)(=O)c2ccc(N(C)C)cc2)CCCN(CC2CCCCC2)CCCN1S(=O)(=O)N1CCc2cc(Cl)ccc2C1 [A147, 4-{[(4 S)-5-[(6-chloro-1,2,3,4-tetrahydroisoquinolin-2-yl)sulfonyl]-9-(cyclohexylmethyl)-4-methyl-1,5,9-triazacyclododecan-1-yl]sulfonyl}-N,N-dimethylaniline]",4.12 µM,1.16%,0.74%,0.99%,> 25 µM,> 25 µM,> 25 µM,2.76%,> 25 µM,–,–,–,–,–,–,–,–,–
C[C@H]1CN(S(=O)(=O)c2ccc(N(C)C)cc2)CCCCN(S(=O)(=O)N2CCc3cc(Cl)ccc3C2)C1 [B21],3.95 µM,0.06%,0.16%,0.03%,> 25 µM,> 25 µM,> 25 µM,0.17%,> 25 µM,–,–,–,–,–,–,–,–,–
"C[C@H]1CN(S(=O)(=O)c2ccc(N(C)C)cc2)CCCN(CC2CCCCC2)CCCN(S(=O)(=O)N2CCN(c3cccc(F)c3)CC2)C1 [A95, 4-{[(3S)-9-(cyclohexylmethyl)-5-{[4-(3-fluorophenyl)piperazin-1-yl]sulfonyl}-3-methyl-1,5,9-triazacyclododecan-1-yl]sulfonyl}-N,N-dimethylaniline]",–,–,–,–,–,–,–,–,–,0.198 µM,43.1%,54.2%,46.1%,> 25 µM,4.9 µM,6.71 µM,43.9%,0.391 µM
"COc1cccc2c1CCN(S(=O)(=O)N1CCCN(CC3CCCCC3)CCCN(S(=O)(=O)c3ccc(N(C)C)cc3)C[C@H](C)C1)C2 [A138, 4-{[(3S)-9-(cyclohexylmethyl)-5-[(5-methoxy-1,2,3,4-tetrahydroisoquinolin-2-yl)sulfonyl]-3-methyl-1,5,9-triazacyclododecan-1-yl]sulfonyl}-N,N-dimethylaniline]",0.0739 µM,17.1%,13.2%,12.5%,> 25 µM,0.947 µM,2.4 µM,8.84%,0.156 µM,–,–,–,–,–,–,–,–,–
"CO/N=C1/CN(S(=O)(=O)c2ccc(N(C)C)cc2)CCCN(CC2CCCCC2)CCCN(S(=O)(=O)N2CCC(c3ccccc3)CC2)C1 [A88, (3Z)-9-(cyclohexylmethyl)-1-[4-(dimethylamino)benzenesulfonyl]-N-methoxy-5-[(4-phenylpiperidin-1-yl)sulfonyl]-1,5,9-triazacyclododecan-3-imine]",–,–,–,–,–,–,–,–,–,4.33 µM,15.2%,15.9%,1.33%,> 25 µM,> 25 µM,> 25 µM,11.7%,> 25 µM
"COc1cc(F)ccc1C1CN(S(=O)(=O)N2CCCN(CC3CCCCC3)CCCN(S(=O)(=O)c3ccc(N(C)C)cc3)C[C@H](C)C2)C1 [A178, 4-{[(3S)-9-(cyclohexylmethyl)-5-{[3-(4-fluoro-2-methoxyphenyl)azetidin-1-yl]sulfonyl}-3-methyl-1,5,9-triazacyclododecan-1-yl]sulfonyl}-N,N-dimethylaniline]",0.135 µM,29.2%,22.8%,25.8%,> 25 µM,4.82 µM,> 25 µM,24.0%,0.255 µM,–,–,–,–,–,–,–,–,–
"C[C@H]1CN(S(=O)(=O)c2ccc(N(C)C)cc2)CCCN(CC2CCCCC2)CCCN(S(=O)(=O)N2CCN(C(=O)OC(C)(C)C)CC2)C1 [A153, tert-butyl 4-{[(3S)-9-(cyclohexylmethyl)-5-[4-(dimethylamino)benzenesulfonyl]-3-methyl-1,5,9-triazacyclododecan-1-yl]sulfonyl}piperazine-1-carboxylate]",1.29 µM,6.23%,0.87%,1.26%,> 25 µM,> 25 µM,> 25 µM,2.57%,1.26 µM,–,–,–,–,–,–,–,–,–
"C[C@H]1CN(S(=O)(=O)Cc2ccccc2)CCCN(CC2CCCCC2)CCCN(S(=O)(=O)N2CCc3cc(Cl)ccc3C2)C1 [A171, 6-chloro-2-{[(3S)-9-(cyclohexylmethyl)-3-methyl-5-phenylmethanesulfonyl-1,5,9-triazacyclododecan-1-yl]sulfonyl}-1,2,3,4-tetrahydroisoquinoline]",> 25 µM,0.90%,0.91%,0.26%,> 25 µM,> 25 µM,> 25 µM,0.60%,> 25 µM,–,–,–,–,–,–,–,–,–

# From patent US11578055B2, “Triazacyclododecansulfonamide (“TCD”)-based protein secretion inhibitors” (KEZAR LIFE SCIENCES, priority 2018, dated 2023)
